Source: patent US20160106102A1, “KNOWN AND NEW HETEROCYCLIC COMPOUNDS AS PEST CONTROL AGENTS” (BAYER CROPSCIENCE AKTIENGESELLSCHAFT, priority 2013, published 2016)

system: Myzus persicae; experiment: Myzus persicae - sachet test; assay type: in vivo; conditions: Myzus persicae; application rate of 6 ppm in nutrient medium; 100% = all animals killed; read-out: efficacy (kill in %)
Procedure, shortened: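 Green peach aphids feed through a sealed sachet on nutrient medium containing the water-diluted formulation (solvents: 2% N-methylpyrrolidone, 2% diacetone alcohol). Percent mortality read after the chosen time; 100% means all animals killed.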

| SMILES | pest or weed control at 6 ppm |
| --- | --- |
| Cc1cc(NC(=O)c2cccnc2)nn1C(=O)c1ccccc1Cl [Compound I-1-122, N-[1-(2-Chlorobenzoyl)-5-methyl-1H-pyrazol-3-yl]nicotinamide] | 100% |

same assay, conditions: Myzus persicae; application rate of 30 ppm in nutrient medium; 100% = all animals killed; read-out: efficacy (kill in %)

| SMILES | pest or weed control at 30 ppm |
| --- | --- |
| Cc1cc(NC(=O)c2cccnc2)nn1C(=O)c1ccccc1Cl [Compound I-1-122, N-[1-(2-Chlorobenzoyl)-5-methyl-1H-pyrazol-3-yl]nicotinamide] | 100% |

same assay, conditions: application rate of 6 ppm in nutrient medium; 100% = all animals killed

| SMILES | efficacy (kill in %) |
| --- | --- |
| COC(=O)c1cccc(Cn2ccc(NC(=O)c3cccnc3)n2)c1 [Compound I-1-77] | 100% |
| CSCCCNC(=O)n1nc(NC(=O)c2cccnc2)cc1C [Compound I-1-165] | 100% |
| Cc1cc(NC(=O)c2cccnc2)nn1CN1CCS/C1=N/C#N [Compound I-1-142] | 100% |
| Cc1cc(NC(=O)c2cccnc2)nn1C(=O)NCc1cccc(F)c1 [Compound I-1-327] | 100% |
| Cc1cc(NC(=O)c2cccnc2)nn1C(=O)NC(C)(C)C [Compound I-1-319] | 100% |
| Cc1cc(NC(=O)c2cccnc2)nn1-c1ccc(C(F)(F)F)cn1 [Compound I-1-45] | 100% |
| CCNC(=O)n1nc(NC(=O)c2cccnc2)cc1C [Compound I-1-288] | 100% |
| Cc1cc(NC(=O)c2cncc(Cl)c2)nn1Cc1ncccn1 [Compound I-1-276] | 100% |
| CCOC(=O)Cn1nc(NC(=O)c2cccnc2)cc1C [Compound I-1-24] | 100% |
| O=C(Nc1cc(Cl)n(Cc2ncccn2)n1)c1cccnc1 [Compound I-1-197] | 100% |
| Cc1cc(NC(=O)c2cccnc2)nn1Cc1cn2cc(Cl)ccc2n1 [Compound I-1-160] | 100% |
| Cc1cc(NC(=O)c2cccnc2)nn1C[S+]([O-])c1ncccn1 (stereo not shown) [Compound I-1-235] | 80% |
| O=C(Nc1ccn(Cc2ccccc2)n1)c1cccnc1 [Compound I-1-84] | 100% |
| O=C(Nc1ccn(Cc2ccc(F)cc2F)n1)c1cccnc1 [Compound I-1-76] | 100% |
| Cc1cc(NC(=O)c2cccnc2)nn1C(=O)NCc1cccc(Cl)c1 [Compound I-1-324] | 100% |
| Cc1cccc(Cn2ccc(NC(=O)c3cccnc3)n2)c1 [Compound I-1-72] | 100% |
| Cc1cc(N(CC(F)F)C(=O)c2cccnc2)nn1Cc1ncccn1 [Compound I-1-265] | 100% |
| Cc1cc(NC(=O)c2cccnc2)nn1Cc1nc(-c2ccccc2)no1 [Compound I-1-300] | 100% |
| COc1cccc(Cn2ccc(NC(=O)c3cccnc3)n2)c1 [Compound I-1-74] | 100% |
| C=CCn1nnc(NC(=O)c2cccnc2)n1 [Compound I-4-8] | 100% |
| Cc1cc(NC(=O)c2cccnc2)nn1Cc1cn2cc(F)ccc2n1 [Compound I-1-159] | 100% |

same assay, conditions: application rate of 30 ppm in nutrient medium; 100% = all animals killed

| SMILES | efficacy (kill in %) |
| --- | --- |
| COC(=O)c1cccc(Cn2ccc(NC(=O)c3cccnc3)n2)c1 [Compound I-1-77] | 100% |
| CSCCCNC(=O)n1nc(NC(=O)c2cccnc2)cc1C [Compound I-1-165] | 100% |
| Cc1cc(NC(=O)c2cccnc2)nn1CN1CCS/C1=N/C#N [Compound I-1-142] | 100% |
| Cc1cc(NC(=O)c2cccnc2)nn1C(=O)NCc1cccc(F)c1 [Compound I-1-327] | 100% |
| Cc1cc(NC(=O)c2cccnc2)nn1C(=O)NC(C)(C)C [Compound I-1-319] | 100% |
| Cc1cc(NC(=O)c2cccnc2)nn1-c1ccc(C(F)(F)F)cn1 [Compound I-1-45] | 100% |
| CCNC(=O)n1nc(NC(=O)c2cccnc2)cc1C [Compound I-1-288] | 100% |
| Cc1cc(NC(=O)c2cncc(Cl)c2)nn1Cc1ncccn1 [Compound I-1-276] | 100% |
| CCOC(=O)Cn1nc(NC(=O)c2cccnc2)cc1C [Compound I-1-24] | 100% |
| O=C(Nc1cc(Cl)n(Cc2ncccn2)n1)c1cccnc1 [Compound I-1-197] | 100% |
| Cc1cc(NC(=O)c2cccnc2)nn1Cc1cn2cc(Cl)ccc2n1 [Compound I-1-160] | 100% |
| Cc1cc(NC(=O)c2cccnc2)nn1C[S+]([O-])c1ncccn1 (stereo not shown) [Compound I-1-235] | 100% |
| O=C(Nc1ccn(Cc2ccccc2)n1)c1cccnc1 [Compound I-1-84] | 100% |
| O=C(Nc1ccn(Cc2ccc(F)cc2F)n1)c1cccnc1 [Compound I-1-76] | 100% |
| Cc1cc(NC(=O)c2cccnc2)nn1C(=O)NCc1cccc(Cl)c1 [Compound I-1-324] | 100% |
| Cc1cccc(Cn2ccc(NC(=O)c3cccnc3)n2)c1 [Compound I-1-72] | 100% |
| Cc1cc(N(CC(F)F)C(=O)c2cccnc2)nn1Cc1ncccn1 [Compound I-1-265] | 100% |
| Cc1cc(NC(=O)c2cccnc2)nn1Cc1nc(-c2ccccc2)no1 [Compound I-1-300] | 100% |
| COc1cccc(Cn2ccc(NC(=O)c3cccnc3)n2)c1 [Compound I-1-74] | 100% |
| C=CCn1nnc(NC(=O)c2cccnc2)n1 [Compound I-4-8] | 100% |
| Cc1cc(NC(=O)c2cccnc2)nn1Cc1cn2cc(F)ccc2n1 [Compound I-1-159] | 100% |

system: not listed separately; experiment: log P determination by LC-MS in the acidic range; assay type: physicochemical; conditions: LC-MS in the acidic range
Source text: The LC-MS determination in the acidic range is effected at pH 2.7 using 0.1% aqueous formic acid and acetonitrile (contains 0.1% formic acid) as eluents, linear gradient from 10% acetonitrile to 95% acetonitrile. Alternatively, the determination is effected in the acidic range at pH 2.3 using 0.1% aqueous phosphoric acid and acetonitrile as eluents; linear gradient from 10% acetonitrile to 95% acetonitrile.

| SMILES | log P (acid) |
| --- | --- |
| COC(=O)c1cccc(Cn2ccc(NC(=O)c3cccnc3)n2)c1 [Compound I-1-77] | 1.57 |
| CSCCCNC(=O)n1nc(NC(=O)c2cccnc2)cc1C [Compound I-1-165] | 1.7 |
| Cc1cc(NC(=O)c2cccnc2)nn1CN1CCS/C1=N/C#N [Compound I-1-142] | 1.08 |
| Cc1cc(NC(=O)c2cccnc2)nn1C(=O)NCc1cccc(F)c1 [Compound I-1-327] | 2.1 |
| Cc1cc(NC(=O)c2cccnc2)nn1C(=O)NC(C)(C)C [Compound I-1-319] | 1.99 |
| Cc1cc(NC(=O)c2cccnc2)nn1-c1ccc(C(F)(F)F)cn1 [Compound I-1-45] | 2.64 |
| CCNC(=O)n1nc(NC(=O)c2cccnc2)cc1C [Compound I-1-288] | 1.24 |
| Cc1cc(NC(=O)c2cncc(Cl)c2)nn1Cc1ncccn1 [Compound I-1-276] | 1.4 |
| CCOC(=O)Cn1nc(NC(=O)c2cccnc2)cc1C [Compound I-1-24] | 0.89 |
| O=C(Nc1cc(Cl)n(Cc2ncccn2)n1)c1cccnc1 [Compound I-1-197] | 1.04 |
| Cc1cc(NC(=O)c2cccnc2)nn1Cc1cn2cc(Cl)ccc2n1 [Compound I-1-160] | 1.03 |
| Cc1cc(NC(=O)c2cccnc2)nn1C[S+]([O-])c1ncccn1 (stereo not shown) [Compound I-1-235] | 0.5 |
| O=C(Nc1ccn(Cc2ccccc2)n1)c1cccnc1 [Compound I-1-84] | 1.52 |
| O=C(Nc1ccn(Cc2ccc(F)cc2F)n1)c1cccnc1 [Compound I-1-76] | 1.68 |
| Cc1cc(NC(=O)c2cccnc2)nn1C(=O)NCc1cccc(Cl)c1 [Compound I-1-324] | 2.39 |
| Cc1cccc(Cn2ccc(NC(=O)c3cccnc3)n2)c1 [Compound I-1-72] | 1.83 |
| Cc1cc(N(CC(F)F)C(=O)c2cccnc2)nn1Cc1ncccn1 [Compound I-1-265] | 1.19 |
| Cc1cc(NC(=O)c2cccnc2)nn1Cc1nc(-c2ccccc2)no1 [Compound I-1-300] | 2.01 |
| COc1cccc(Cn2ccc(NC(=O)c3cccnc3)n2)c1 [Compound I-1-74] | 1.57 |
| Cc1cc(NC(=O)c2cccnc2)nn1Cc1cn2cc(F)ccc2n1 [Compound I-1-159] | 0.66 |

same assay, conditions: Table 4; HPLC on reversed-phase column (C 18), 55° C., acidic range (pH 2.7 or pH 2.3)

| SMILES | log P (acid) |
| --- | --- |
| C=CCn1nnc(NC(=O)c2cccnc2)n1 [Compound I-4-8] | 0.60 |

same assay, conditions: pH 2.7, LC-MS in the acidic range; read-out: log P (acid)

| SMILES | chromatographic logP |
| --- | --- |
| Cc1cc(NC(=O)c2cccnc2)nn1C(=O)c1ccccc1Cl [Compound I-1-122, N-[1-(2-Chlorobenzoyl)-5-methyl-1H-pyrazol-3-yl]nicotinamide] | 2.27 |

same assay, conditions: pH 2.7, values given in the synthesis examples and NMR lists; read-out: HPLC-MS: log P

| SMILES | chromatographic logP |
| --- | --- |
| Cc1cc(NC(=O)c2cccnc2)nn1C(=O)c1ccccc1Cl [Compound I-1-122, N-[1-(2-Chlorobenzoyl)-5-methyl-1H-pyrazol-3-yl]nicotinamide] | 2.27 |
